Laboratory results: ChEMBL document CHEMBL5543148, “Discovery of First-in-Class PROTAC Degraders of SARS-CoV-2 Main Protease” (J Med Chem, 2024)

What was measured:
SARS-CoV-2 [1] = assay: Antiviral activity against SARS-CoV-2 harboring NSP5 E166A mutant infected in human A549-ACE2 cells measured after 48 hrs by RT-PCR analysis; type: functional, organism-based, Severe acute respiratory syndrome coronavirus 2
SARS-CoV-2 [2] = assay: Antiviral activity against SARS-CoV-2 harboring recombinant live-attenuated delta3678 mGFP infected in human A549-ACE2 cells measured after 48 hrs by RT-PCR analysis; type: functional, organism-based; conditions: Severe acute respiratory syndrome coronavirus 2, A549-ACE2, 48 h

`C[C@@H](OC(C)(C)C)[C@H](NC(=O)OCc1cccc(OCCCCCCOc2cccc3c2C(=O)N(C2CCC(=O)NC2=O)C3=O)c1)C(=O)N[C@@H](CC1CCCCC1)C(=O)N[C@H](C=O)C[C@@H]1CCNC1=O` (some centres not stated) gave an EC50 (SARS-CoV-2 [1]) of 460 nM and an EC50 (SARS-CoV-2 [2]) of 2200 nM.
